What was measured:
Assay type in all cases: physicochemical
[1] = Curing (ripening) of Compound A aqueous suspension at 40 degrees C: conversion of form A1 to A2, followed by particle size, XRPD and microphotography
Method: XRPD patterns were obtained using a high-throughput XRPD set-up. The plates were mounted on a Bruker GADDS diffractometer equipped with a Hi-Star area detector. The XRPD platform was calibrated using Silver Behenate for the long d-spacings and Corundum for the short d-spacings.
Data collection was carried out at room temperature using monochromatic CuKα radiation in the 2-theta region between 1.5 degrees and 41.5 degrees, which is the most distinctive part of the XRPD pattern between the polymorph forms. The diffraction pattern of each well was collected in 2 theta ranges (1.5 degrees≦2 theta≦21.5 degrees for the first frame, and 19.5 degrees≦2 theta≦41.5 degrees for the second) with an exposure time of 30 seconds for each frame. No background subtraction or curve smoothing was applied to the XRPD patterns. The carrier material used during XRPD analysis was transparent to X-rays and contributed only slightly to the background.
As described above the Form A1 can be obtained predominantly via recrystallization from ethanol or under slow evaporation conditions. It has also been established that ripening or curing of Compound A particles suspended in an aqueous suspension formulated for ocular delivery at 40 degrees C. for a relatively short period of time formed polymorph form A2 from polymorph form A1. The aqueous suspension samples were kept at 40 degrees C. for up to 108 hours and monitored by particle size measurement, XRPD and microphotography. […] XRPD analyses indicated a change in polymorph content from about 74% A1 to 26% A2 at time zero to 0% A1 to 100% A2 at 108 hours at 40 degrees C. […] Also, habit changes coupled with A2 growth were reflected in the XRPD patterns and could be monitored by a difference in selected peak intensities from planes within the crystal lattice perpendicular to the c axis that change in intensity as the habit of the crystal changes.
(§1) The particle size analyses were performed on a Cilas 1180 Particle Size Analyzer. The parameters used were liquid mode, sample refractive index=1.62 (determined using Cargille immersion oils), liquid refractive index=1.333 (value for water), 30 second measurement, 180 rpm stifling, 120 rpm pump circulation, no sonication, 5 repeat measurements.

[2] = Storage of aqueous suspension ocular formulation containing Compound A in the A1 polymorph at 2-8° C
Method: When the aqueous suspension ocular formulation containing Compound A in the A1 polymorph is stored at 2-8° C., a temperature required to limit decomposition of Compound A over long term storage, the habit of the suspended particles changes slowly over a period of 6 to 12 months. During this time the small irregular particles of suspended drug change to rod-like habits, with many particles having a length along the longest dimension over 100 microns.

[3] = Long term stability and particle size growth of cured (A2) aqueous formulation lots at 5 and 25 degrees Celsius; settings: aqueous suspension, 6 month period at either 5° C. or 25° C.
Method: as §1
A batch of sterile material of Compound A was prepared as described above under the “Synthesis of Compound A”. The resulting Compound A material was then sterilized with gamma irradiation at up to 40 kGray and then formulated into the following aqueous formulations: […]
Various concentrations of Compound A formulation lots were prepared from 0.152, 0.30, 0.61, 0.91, 2.42, 0.46, 0.76%, W/V to provide for the ability to deliver different levels of Compound A per drop of formulation. For example one drop of the 0.152%, W/V of compound A would deliver 50 mcg per drop, 0.30%, W/V would deliver 100 mcg per drop, right through to 0.76% W/V delivering 250 mcg per drop. The formulation lots were then heated to undergo the curing step and convert the A1 polymorph form of Compound A to the A2 polymorph form of Compound A. The curing step was undertaken by placing the formulation lots at 40 degrees C. for 48 hours and then reverting the formulations lots to the desired longer term storage conditions for stability studies. […]

With `O=[N+]([O-])OC[C@H]1O[C@@H](n2cnc3c(NC4CCCC4)ncnc32)[C@H](O)[C@@H]1O` [Compound A, [2R,3S,4R,5R)-5-(6-(cyclopentylamino)-9H-purin-9-yl)-3,4-dihydroxytetrahydrofuran-2-yl)] methyl nitrate] the “average particle size change” value ([1]; 40 degrees C, after 15 hours to 108 hours) was “remained effectively constant”, the “time over which XRPD peak intensity differences (crystal habit) changed” value ([1]; 40 degrees C, constant thereafter) was “up to 9 hours” and the “average particle size change” value ([1]; 40 degrees C, over 15 hours) was “increased significantly”. For the same compound, the “polymorph content A1 (XRPD)” value ([1]; 108 hours at 40 degrees C) was 0%, the “polymorph content A2 (XRPD)” value ([1]; 108 hours at 40 degrees C) was 100% and the “polymorph content A1 (XRPD)” value ([1]; time zero) was “about 74%”. The “polymorph content A2 (XRPD)” value ([1]; time zero) was ~26%.

With `O=[N+]([O-])OC[C@H]1O[C@@H](n2cnc3c(NC4CCCC4)ncnc32)[C@H](O)[C@@H]1O` [Form A1] the “resuspendability by sonication and shaking” value ([2]; aqueous suspension after habit change at 2-8° C) was “much more difficult to resuspend” and the “particle length along the longest dimension (many particles)” value ([2]; aqueous suspension stored at 2-8° C, 6 to 12 months) was “over 100 microns”.

In the case of `O=[N+]([O-])OC[C@H]1O[C@@H](n2cnc3c(NC4CCCC4)ncnc32)[C@H](O)[C@@H]1O` [Form A2], the “changes to particle habit, size or polymorph content on storage” value [3] was “limit any further changes”.
